# Experimental data as given in patent US20260224756A1, “Methods Of Cellular Imaging And Inorganic Nanoimaging Agents For Same” (Cornell University, priority 2023, published 2026).
# Entries after “also recorded” stand apart in the source; their conditions may differ.
# Key:
# Format in all cases: in vivo, mouse
# osteocytes [1] = test: Endocytosis Inhibition Experiment: Dyngo4a or MβCD pre-incubation before C'Dot injection and clearance imaging; settings: for changes in uptake and retention of C'Dots into osteocytes (FIG. 17): RGD and PEG C'Dots; for number of cells visualized and quantified at the initial imaging timepoint compared to untreated control: RGD-C'Dots, 30 minute preincubation of drug
# Protocol: C'Dot Injection and Incubation: Mice were anesthetized with 2-3% isoflurane mixed with medical grade air in an induction chamber for 3 minutes prior to injection. During injection, mice were kept under 2% isoflurane with a nose cone. A 10 μL subcutaneous injection of 10 μM C'Dots was then administered over the third metatarsal (MT3). C'Dots were incubated for 1 hour prior to MT3 isolation (n=4-5/group/sex). Mice were allowed normal cage activity during their incubation time, and were re-anesthetized immediately before MT3 isolation.
# C'Dot Imaging: C'Dot fluorescent signal inside the MT3 was visualized with multiphoton microscopy (MPM) (Bergamo II, Thorlabs) as previously described (Matthews 2023). Briefly, a 20× immersion objective (XLUMPLFLN, Olympus), 1090 nm wavelength excitation, and a >647 nm longpass filter acquisition were used for Cy5 encapsulated C'Dots. Images were captured at 1024×1024 pixel density and 0.588 μm pixel resolution. For the C'Dot clearance study, a 35 μm z-stack was taken for each mouse, starting 20 μm beneath the bone surface, with 0.3 μm steps between each slice and 7 frame averaging per slice. These z-stacks were taken every 15 minutes for almost 3 hours after the initial 1 hour incubation.
# C'Dot Image Analysis: Z-stacks were analyzed in ImageJ (NIH) as previously described (Matthews 2023). Briefly, a macro was created to interpolate the regions of interest across the z-stack as well as filter the images. Then 3D segmentation was run, creating objects for all cell volumes over a threshold intensity. The lower bound for threshold intensity was established as the mean plus 3× standard deviation of background fluorescence. Segmented objects were then filtered by surface area (>1000 pixels) to ensure only full cell volumes were counted, and mean intensity for each object was quantified using the 3D manager tool. Intensities were normalized to background within each z-stack.
# Endocytosis Inhibition Experiment: The small molecule Dyngo4a was used as a potent Dynasore analogue to evaluate the impact of dynamin-mediated endocytosis inhibition. A pre-incubation of Dyngo4a (10 μL, 30 μM) was subcutaneously injected above the MT3 30 minutes prior to C'Dot injection and subsequent imaging. Dyngo4a was diluted from a stock solution in DMSO to the working concentration in 1×PBS. Dyngo4a was kept at […] and was defrosted prior to use. Methyl-β-cyclodextrin (MβCD) was used as a depletor of plasma membrane cholesterol to evaluate the impact of cholesterol-mediated, lipid raft-based endocytosis inhibition. A pre-incubation of MβCD (10 μL, 10 mM) was subcutaneously injected 30 minutes before C'Dot injection. MβCD was diluted from a powder in 1×PBS. MβCD was kept at 4 C and warmed to room temperature prior to use. Both drugs were tested across all groups: male and female, PEG- and RGD-C'Dots (n=4-5/group/sex).
# Statistical Analyses: Clearance study analysis was done using a student's t-test, 2-way ANOVAs, and regression analyses, including non-linear (One Phase Decay) and linear. Analyses were performed in GraphPad Prism version 9.0 for Mac OS X (GraphPad Software).
# METHODS: Silica core poly(ethylene glycol) shell (core-shell) nanoparticles covalently encapsulating Cy5 dye (PE G-C'Dots) were created using a modified Stober condensation in water. RGD-C'Dots were created by surface functionalizing C'Dot surface with amino acid motifs that bind to the extracellular RGD domain of integrin proteins. Skeletally mature C57BL/6J mice age 16-18 weeks were used for these studies (n=4-5/group/sex). C'Dot Injections: Under inhaled isoflurane anesthesia, PEG- or RGD-C'Dots were injected subcutaneously above the third metatarsal (MT3) in the mouse hind paw at a concentration of 10 μM (FIG. 9). C'Dots were incubated for 45 minutes with mice allowed normal cage activity. […]
# osteocytes [2] = test: Quantification of C'Dot Subcellular Localization within osteocyte cell bodies
# Protocol: Quantification of C'Dot Subcellular Localization: Individual frames from z-stacks taken after a 45 minute C'Dot incubation were analyzed for subcellular localization within osteocytes under different study conditions. Filtering with a gaussian blur was performed prior to thresholding of signal and particle analysis to identify cellular regions of interest (ROIs). These ROIs were overlayed onto the original image. Cells with distinct subcellular localization of C'Dots were counted as a percentage of total cells. Other cells had saturated or non-distinct signal. Cells with C'Dot signal in with a rim phenotype were also quantified by-eye. Two blinded individuals quantified the images and averaged consensus data was used in the final results.
# METHODS: Silica core poly(ethylene glycol) shell (core-shell) nanoparticles covalently encapsulating Cy5 dye (PE G-C'Dots) were created using a modified Stober condensation in water. RGD-C'Dots were created by surface functionalizing C'Dot surface with amino acid motifs that bind to the extracellular RGD domain of integrin proteins. Skeletally mature C57BL/6J mice age 16-18 weeks were used for these studies (n=4-5/group/sex). C'Dot Injections: Under inhaled isoflurane anesthesia, PEG- or RGD-C'Dots were injected subcutaneously above the third metatarsal (MT3) in the mouse hind paw at a concentration of 10 μM (FIG. 9). C'Dots were incubated for 45 minutes with mice allowed normal cage activity. Pre-incubation with Dyngo-4a (Abcam) or Methyl-β-cyclodextrin (Sigma Aldrich) for 30 minutes prior to C'Dot injection was used to inhibit dynamin activity or cholesterol lipid raft formation in treated groups. Imaging: After incubation, the MT3 was surgically isolated and stabilized using a metal 3-pin system in re-anesthetized mice'. […] Image Quantification: Mean intensity and cell count of the C'Dot tagged osteocytes were quantified in ImageJ (NIH) using 3D segmentation and were normalized to background intensity. Subcellular localization of C'Dots was quantified by eye from a single frame of the first z-stack of each clearance experiment. […]
# osteocytes [3] = test: Combined acute and extended C'Dot clearance from osteocytes in non-drugged and drugged groups; settings: for impact on combined acute and extended C'Dot clearance (FIG. 18): male mice; for impact on combined acute and extended C'Dot clearance (FIG. 19): male mice (so in the source)
# Protocol: Osteocyte C'Dot Endocytosis and Metabolism: C'Dots and their rapid uptake and clearance from osteocytes was used to study endocytosis in living bone tissue. In endocytosis experiments, different drugs are preincubated in the foot (injected in the same manner) prior to C'Dot application and incubation. Drugs to target different types of endocytic pathways, including non-receptor mediated endocytosis and clathrin mediated endocytosis, were used. The same clearance imaging was performed to see how the drugs impact the cellular uptake and retention of the nanoparticles over time.
# Additionally, this experiment was performed again with a short, 5 minute incubation and more rapid imaging to see what the acute impacts of the drugs were on C'Dot uptake.
Compound,changes in uptake and retention of C'Dots into osteocytes (FIG. 17) (osteocytes [1]),"RGD C'Dot signal compared to untreated control (osteocytes [1]; female group, MβCD pre-incubation)","PEG C'Dot signal compared to untreated control (osteocytes [1]; male and female PEG C'Dot groups, MβCD pre-incubation)","RGD C'Dot signal compared to untreated control (osteocytes [1]; male group, MβCD pre-incubation)","RGD C'Dot signal compared to untreated control (osteocytes [1]; male group, MβCD pre-incubation, listed as M (3CD))",change in percentage of cells with subcellular localization after drug pre-incubation (osteocytes [2]; any group),impact on combined acute and extended C'Dot clearance (FIG. 18) (osteocytes [3]),impact on combined acute and extended C'Dot clearance (FIG. 19) (osteocytes [3]),"change of PEG-C'Dot clearance from untreated control (osteocytes [1]; PEG-C'Dots, males and females, Dyngo4a preincubation)","RGD-C'Dot signal at the end of the imaging experiment (osteocytes [1]; female mice, Dyngo4a preincubation)",number of cells visualized and quantified at the initial imaging timepoint compared to untreated control (osteocytes [1]; female mice),"RGD C'Dot signal intensity and retention compared to untreated control (osteocytes [1]; male mice, Dyngo4a pre-incubation)","RGD-C'Dot signal at the end of the imaging experiment (osteocytes [1]; male mice, Dyngo4a preincubation)",number of cells visualized and quantified at the initial imaging timepoint compared to untreated control (osteocytes [1]; male mice),"change in cells with discrete localization of RGD C'Dot signal after drug pre-incubation (osteocytes [2]; females, pre-incubation with drug)","cells with discrete localization of RGD C'Dot signal after drug pre-incubation (osteocytes [2]; males, pre-incubation with drug)"
Methyl-β-cyclodextrin [MβCD],significant changes in uptake and retention,significant increase,only males retained a significant increase in signal,significant increase,no effect,did not significantly change,has an impact on both C'Dot types,has an impact on both C'Dot types,,,,,,,,
O=C(N/N=C/c1cc(O)c(O)cc1O)c1cc2ccccc2cc1O [Dyngo4a],significant changes in uptake and retention,,,,,,has an impact only on the RGD C'Dots,does not have an impact on either C'Dot type,neither males or females having significant change,near zero by the end of the experiment,no statistically significant impact,significantly increased,maintained until the end of the imaging experiment,significantly higher,non-significant decrease; also recorded: no statistically significant impact,25%
